Results reported in patent US10034861B2 (priority 2016, dated 2018).

Columns and labels:
Assay type in all cases: biochemical
PDE1B = PDE1B (Homo sapiens (Human), UniProt Q01064); experiment: PDE1 inhibition assay (PDE1B); conditions: 15 nM tritium labelled cAMP, 1 hr at room temperature, SPA beads; read-out: PDE1B, IC50
Source text: (§1) Table 1 lists the IC50 value for inhibition of PDE1 by the compounds of the invention. […] PDE1 assays are described in the Experimental Section.

PDE1C = PDE1C (Homo sapiens (Human), UniProt Q14123); experiment: biochemical; conditions: 15 nM tritium labelled cAMP, 1 hr at room temperature, SPA beads
Chain of PDE1C (Q14123 whole entry): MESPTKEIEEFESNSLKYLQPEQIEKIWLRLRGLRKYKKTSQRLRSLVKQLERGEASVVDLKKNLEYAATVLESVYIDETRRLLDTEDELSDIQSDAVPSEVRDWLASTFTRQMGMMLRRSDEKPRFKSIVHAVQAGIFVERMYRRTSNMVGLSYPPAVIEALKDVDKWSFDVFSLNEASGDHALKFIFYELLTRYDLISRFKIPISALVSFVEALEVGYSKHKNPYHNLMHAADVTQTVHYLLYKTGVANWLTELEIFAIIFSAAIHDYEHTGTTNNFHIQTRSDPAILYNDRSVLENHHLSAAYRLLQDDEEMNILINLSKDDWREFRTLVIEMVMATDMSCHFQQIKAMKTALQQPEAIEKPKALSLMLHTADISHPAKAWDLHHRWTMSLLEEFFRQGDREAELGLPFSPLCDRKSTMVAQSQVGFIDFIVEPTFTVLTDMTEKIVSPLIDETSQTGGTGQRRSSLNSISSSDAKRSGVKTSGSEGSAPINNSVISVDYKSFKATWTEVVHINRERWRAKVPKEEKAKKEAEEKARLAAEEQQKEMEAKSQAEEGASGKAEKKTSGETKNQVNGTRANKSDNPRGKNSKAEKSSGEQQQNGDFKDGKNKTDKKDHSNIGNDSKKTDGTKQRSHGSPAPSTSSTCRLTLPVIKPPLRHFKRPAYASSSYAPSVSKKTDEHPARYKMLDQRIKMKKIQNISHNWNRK
Source text: as §1

PDE1A = PDE1A (Homo sapiens (Human), UniProt P54750); experiment: biochemical; conditions: 15 nM tritium labelled cAMP, 1 hr at room temperature, SPA beads
Chain of PDE1A (P54750 whole entry): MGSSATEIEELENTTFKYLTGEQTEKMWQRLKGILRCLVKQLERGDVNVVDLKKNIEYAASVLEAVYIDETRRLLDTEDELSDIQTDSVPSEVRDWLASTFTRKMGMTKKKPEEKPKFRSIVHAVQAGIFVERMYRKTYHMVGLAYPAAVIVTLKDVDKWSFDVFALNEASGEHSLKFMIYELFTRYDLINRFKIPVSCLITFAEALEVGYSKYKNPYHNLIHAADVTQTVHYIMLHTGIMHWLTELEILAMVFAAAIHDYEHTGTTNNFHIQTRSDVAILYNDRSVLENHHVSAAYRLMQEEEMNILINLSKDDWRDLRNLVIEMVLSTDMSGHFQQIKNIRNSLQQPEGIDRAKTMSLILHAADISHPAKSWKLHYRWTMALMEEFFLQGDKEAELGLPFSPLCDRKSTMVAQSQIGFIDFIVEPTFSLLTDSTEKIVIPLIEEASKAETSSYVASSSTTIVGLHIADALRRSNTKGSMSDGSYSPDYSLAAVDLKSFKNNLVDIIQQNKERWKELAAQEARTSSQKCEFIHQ
Source text: as §1

Chain of PDE1B (Q01064 whole entry): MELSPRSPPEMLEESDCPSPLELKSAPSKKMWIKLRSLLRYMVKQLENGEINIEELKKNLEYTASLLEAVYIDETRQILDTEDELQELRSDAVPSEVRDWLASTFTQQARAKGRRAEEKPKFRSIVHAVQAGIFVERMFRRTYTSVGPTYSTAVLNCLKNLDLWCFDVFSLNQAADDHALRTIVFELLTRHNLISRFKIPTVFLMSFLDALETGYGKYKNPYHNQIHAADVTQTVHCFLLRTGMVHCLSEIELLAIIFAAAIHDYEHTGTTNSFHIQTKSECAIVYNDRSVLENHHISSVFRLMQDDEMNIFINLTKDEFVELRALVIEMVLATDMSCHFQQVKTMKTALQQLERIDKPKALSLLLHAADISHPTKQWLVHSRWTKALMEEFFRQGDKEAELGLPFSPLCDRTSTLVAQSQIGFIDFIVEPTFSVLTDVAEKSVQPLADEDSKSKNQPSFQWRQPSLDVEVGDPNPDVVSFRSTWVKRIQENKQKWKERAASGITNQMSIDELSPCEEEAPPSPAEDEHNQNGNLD

| SMILES | IC50 (PDE1B) | IC50 (PDE1C) | IC50 (PDE1A) |
| --- | --- | --- | --- |
| CCOc1ncccc1-c1cc(NCc2cnn(C)c2)c2c(cnn2C)n1 [Example 16, 5-(2-ethoxypyridin-3-yl)-1-methyl-N-((1-methyl-1H-pyrazol-4-yl)methyl)-1H-pyrazolo[4,3-b]pyridin-7-amine] | 92 nM | 1800 nM | 670 nM |
| CCOc1ncccc1-c1cc(NCc2cnn(C)c2)c2c(n1)c(C)nn2C1COC1 [Example 27, 5-(2-ethoxy-3-pyridyl)-3-methyl-N-[(1-methylpyrazol-4-yl)methyl]-1-(oxetan-3-yl)pyrazolo[4,3-b]pyridin-7-amine] | 6.6 nM | 170 nM | 94 nM |
| CCOc1ncccc1-c1cc(NCc2ccccn2)c2c(n1)c(C)nn2C(C)C [Example 100, 5-(2-ethoxy-3-pyridyl)-1-isopropyl-3-methyl-N-(2-pyridylmethyl)pyrazolo[4,3-b]pyridin-7-amine] | 0.39 nM | 21 nM | 6.3 nM |
| Cc1nn(C(C)C)c2c(NCc3cnn(C)c3)cc(-c3nncn3C)nc12 [Example 203, 1-isopropyl-3-methyl-N-[(1-methylpyrazol-4-yl)methyl]-5-(4-methyl-1,2,4-triazol-3-yl)pyrazolo[4,3-b]pyridin-7-amine] | 180 nM | 420 nM | 410 nM |
| Cc1nocc1-c1cc(NCc2cnn(C)c2)c2c(n1)c(C)nn2C(C)C [Example 194, 1-isopropyl-3-methyl-5-(3-methylisoxazol-4-yl)-N-[(1-methylpyrazol-4-yl)methyl]pyrazolo[4,3-b]pyridin-7-amine] | 23 nM | 21 nM | 95 nM |
| CCCOc1ncccc1-c1cc(NCc2cnn(C)c2)c2c(n1)c(C)nn2C(C)C [Example 94, 1-isopropyl-3-methyl-N-[(1-methylpyrazol-4-yl)methyl]-5-(2-propoxy-3-pyridyl)pyrazolo[4,3-b]pyridin-7-amine] | 0.065 nM | 4.9 nM | 1.4 nM |
| CCOc1ncccc1-c1cc(NCc2cc(OC)ncn2)c2c(n1)c(C)nn2C(C)C [Example 179, 5-(2-ethoxy-3-pyridyl)-1-isopropyl-N-[(6-methoxypyrimidin-4-yl)methyl]-3-methyl-pyrazolo[4,3-b]pyridin-7-amine] | 0.51 nM | 7 nM | 2.8 nM |
| Cc1nn(C(C)C)c2c(NCc3cnn(C)c3)cc(N3CCC3=O)nc12 [Example 152, 1-[1-isopropyl-3-methyl-7-[(1-methylpyrazol-4-yl)methylamino]pyrazolo[4,3-b]pyridin-5-yl]azetidin-2-one] | 32 nM | 61 nM | 48 nM |
| CCOc1ncccc1-c1cc(NCc2cccn(C)c2=O)c2c(n1)c(C)nn2C(C)C [Example 108, 3-[[[5-(2-ethoxy-3-pyridyl)-1-isopropyl-3-methyl-pyrazolo[4,3-b]pyridin-7-yl]amino]methyl]-1-methyl-pyridin-2-one] | 0.36 nM | 12 nM | 2.8 nM |
| CCNc1ncccc1-c1cc(NCc2cnn(C)c2)c2c(n1)c(C)nn2C(C)C [Example 79, 5-(2-(ethylamino)pyridin-3-yl)-1-isopropyl-3-methyl-N-((1-methyl-1H-pyrazol-4-yl)methyl)-1H-pyrazolo[4,3-b]pyridin-7-amine] | 31 nM | 260 nM | 230 nM |
| CCOc1ncccc1-c1cc(NCc2ccc(F)nc2)c2c(n1)c(C)nn2C(C)C [Example 116, 5-(2-ethoxy-3-pyridyl)-N-[(6-fluoro-3-pyridyl)methyl]-1-isopropyl-3-methyl-pyrazolo[4,3-b]pyridin-7-amine] | 2.4 nM | 46 nM | 21 nM |
| CCOc1ncccc1-c1cc(NCc2cnn(C)c2)c2c(n1)c(C)nn2C [Example 28, 5-(2-ethoxy-3-pyridyl)-1,3-dimethyl-N-[(1-methylpyrazol-4-yl)methyl]pyrazolo[4,3-b]pyridin-7-amine] | 85 nM | 1900 nM | 550 nM |
| Cc1nn(C(C)C)c2c(NCc3cnn(C)c3)cc(N3CCCC3=O)nc12 [Example 154, 1-[1-isopropyl-3-methyl-7-[(1-methylpyrazol-4-yl)methylamino]pyrazolo[4,3-b]pyridin-5-yl]pyrrolidin-2-one] | 3.6 nM | 49 nM | 26 nM |
| Cc1csc(-c2cc(NCc3cnn(C)c3)c3c(n2)c(C)nn3C(C)C)n1 [Example 149, 1-isopropyl-3-methyl-N-[(1-methylpyrazol-4-yl)methyl]-5-(4-methylthiazol-2-yl)pyrazolo[4,3-b]pyridin-7-amine] | 2.4 nM | 69 nM | 29 nM |
| CCOc1ncccc1-c1cc(NCc2ccc(OC)cn2)c2c(n1)c(C)nn2C(C)C [Example 112, 5-(2-ethoxy-3-pyridyl)-1-isopropyl-N-[(5-methoxy-2-pyridyl)methyl]-3-methyl-pyrazolo[4,3-b]pyridin-7-amine] | 12 nM | 100 nM | 61 nM |
| CCOc1ncccc1-c1cc(NCc2ccnn2C)c2c(cnn2C(C)C)n1 [Example 18, 5-(2-ethoxypyridin-3-yl)-1-isopropyl-N-((1-methyl-1H-pyrazol-5-yl)methyl)-1H-pyrazolo[4,3-b]pyridin-7-amine] | 73 nM | 640 nM | 450 nM |
| Cc1nn(C(C)C)c2c(NCc3cnn(C)c3)cc(-c3ccccc3)nc12 [Example 64, 1-isopropyl-3-methyl-N-[(1-methylpyrazol-4-yl)methyl]-5-phenyl-pyrazolo[4,3-b]pyridin-7-amine] | 12 nM | 47 nM | 52 nM |
| CCOc1ncccc1-c1cc(NCc2coc(C)n2)c2c(n1)c(C)nn2C(C)C [Example 37, 5-(2-ethoxy-3-pyridyl)-1-isopropyl-3-methyl-N-[(2-methyloxazol-4-yl)methyl]pyrazolo[4,3-b]pyridin-7-amine] | 0.43 nM | 18 nM | 5.9 nM |
| CCOc1ncccc1-c1cc(NCc2cc(CF)no2)c2c(n1)c(C)nn2C(C)C [Example 167, 5-(2-ethoxy-3-pyridyl)-N-[[3-(fluoromethyl)isoxazol-5-yl]methyl]-1-isopropyl-3-methyl-pyrazolo[4,3-b]pyridin-7-amine] | 1 nM | 33 nM | 11 nM |
| CCOc1ncccc1-c1cc(NCc2cncc(OC)c2)c2c(n1)c(C)nn2C(C)C [Example 106, 5-(2-ethoxy-3-pyridyl)-1-isopropyl-N-[(5-methoxy-3-pyridyl)methyl]-3-methyl-pyrazolo[4,3-b]pyridin-7-amine] | 0.45 nM | 3.9 nM | 2.1 nM |
| Cc1nn(C(C)C)c2c(NCc3cnn(C)c3)cc(N3C(=O)OCC3C)nc12 (stereo not drawn) [Example 155, 3-[1-isopropyl-3-methyl-7-[(1-methylpyrazol-4-yl)methylamino]pyrazolo[4,3-b]pyridin-5-yl]-4-methyl-oxazolidin-2-one] | 4.9 nM | 3.9 nM | 8.2 nM |
| Cc1cnc(-c2cc(NCc3cnn(C)c3)c3c(n2)c(C)nn3C(C)C)s1 [Example 148, 1-isopropyl-3-methyl-N-[(1-methylpyrazol-4-yl)methyl]-5-(5-methylthiazol-2-yl)pyrazolo[4,3-b]pyridin-7-amine] | 58 nM | 86 nM | 110 nM |
